pEC50, pIC50: −log10 of the molar value. Where “and” joins values, the source holds several entries; their conditions need not be identical. Equal values may be shown once. Read-outs that look alike come from different tables or passages of the source.
Legend:
PP2A [1] = molecular target: T1, PP2A (Homo sapiens, UniProt P67775); assay: biochemical; assay type: biochemical
T1 construct: purified PP2A (EMD Millipore Corporation, Darmstadt, Germany, cat. #14-111; human red blood cells); purchased EMD Millipore Corporation 14-111; host or cells: human red blood cells (tissue-purified)
T1 sequence (P30153 2-589): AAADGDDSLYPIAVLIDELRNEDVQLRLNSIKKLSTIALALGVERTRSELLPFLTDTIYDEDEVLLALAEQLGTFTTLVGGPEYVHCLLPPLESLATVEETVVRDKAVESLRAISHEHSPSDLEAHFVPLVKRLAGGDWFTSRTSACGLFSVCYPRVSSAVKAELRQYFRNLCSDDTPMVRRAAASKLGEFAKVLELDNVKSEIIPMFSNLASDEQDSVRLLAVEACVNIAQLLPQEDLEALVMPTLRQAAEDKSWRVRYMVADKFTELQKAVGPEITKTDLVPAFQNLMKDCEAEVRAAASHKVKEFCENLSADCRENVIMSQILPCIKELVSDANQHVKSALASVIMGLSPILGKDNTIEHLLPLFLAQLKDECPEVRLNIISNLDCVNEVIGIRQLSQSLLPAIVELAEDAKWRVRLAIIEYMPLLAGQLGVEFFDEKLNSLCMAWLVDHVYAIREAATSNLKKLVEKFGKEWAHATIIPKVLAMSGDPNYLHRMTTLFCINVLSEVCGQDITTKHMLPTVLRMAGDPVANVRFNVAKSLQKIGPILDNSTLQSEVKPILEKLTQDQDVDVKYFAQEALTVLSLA
T1 sequence (P67775 whole entry): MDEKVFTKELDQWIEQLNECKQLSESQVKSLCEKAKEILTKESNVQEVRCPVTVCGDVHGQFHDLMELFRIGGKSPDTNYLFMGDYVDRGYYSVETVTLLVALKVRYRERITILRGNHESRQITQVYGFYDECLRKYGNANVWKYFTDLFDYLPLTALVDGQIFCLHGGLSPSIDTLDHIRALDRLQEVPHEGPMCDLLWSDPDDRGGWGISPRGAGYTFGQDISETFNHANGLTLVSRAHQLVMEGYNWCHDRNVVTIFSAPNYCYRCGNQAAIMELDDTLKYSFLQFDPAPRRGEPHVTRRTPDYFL

[2] = tested on: Jurkat T lymphocyte cells; assay: cells; assay type: cell-based, human
mice = conditions: relative to OA, cited from earlier work; for TEF (European Food Safety Authority): based on LD50 values from exposed mice
PP5 [3] = molecular target: T2, PP5 (Homo sapiens, UniProt P53041); assay: PP5 inhibition, fluorimetric DiFMUP assay; assay type: biochemical; set-up: purchased EMD Millipore Corporation 14-778; host or cells: E. coli; conditions: for pIC50: PP5, DiFMUP 50 μM; for Rel. Potency / TEF: PP5, relative to OA
T2 sequence (P53041 1-499): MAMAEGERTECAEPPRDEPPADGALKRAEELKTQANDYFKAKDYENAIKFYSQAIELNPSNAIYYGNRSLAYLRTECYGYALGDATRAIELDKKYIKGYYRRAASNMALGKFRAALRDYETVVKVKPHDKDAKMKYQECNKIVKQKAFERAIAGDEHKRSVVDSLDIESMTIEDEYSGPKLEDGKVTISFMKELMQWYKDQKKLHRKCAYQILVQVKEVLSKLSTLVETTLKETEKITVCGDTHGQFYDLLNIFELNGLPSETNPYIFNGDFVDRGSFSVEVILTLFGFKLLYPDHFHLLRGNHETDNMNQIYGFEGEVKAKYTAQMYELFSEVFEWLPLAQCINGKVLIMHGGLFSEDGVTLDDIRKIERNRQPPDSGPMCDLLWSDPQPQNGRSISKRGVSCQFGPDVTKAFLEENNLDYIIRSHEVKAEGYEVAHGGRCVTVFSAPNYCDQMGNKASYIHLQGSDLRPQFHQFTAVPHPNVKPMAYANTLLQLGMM
Description: Figure 3 Effect of various DSP toxins on protein phosphatase activity. The activities of protein phosphatases (A) PP2a, (B) PP1, and (C) PP5 were assessed in the presence of various concentrations of natural OA, natural DTX1, natural DTX2, synthetic DTX2, or synthetic 2-epi-DTX2. All data (mean ± SE; n = 3 or 4) were normalized to the control. […], variable slope, non-linear dose-response analysis was performed and IC50 and 95% confidence interval values were calculated (Table 2).
Preliminary studies were conducted by Millipore (EMD Millipore Corporation, Darmstadt, Germany) using their PhosphataseProfiler that assessed the activities of 21 human and yeast phosphatases in the presence of DTX2. Phosphatase sensitivities to DTX2 were more extensively characterized using 96-well fluorescence-based assays in the presence of various natural and synthetic OA/DTXs. Briefly, the assay tests the ability of toxins to inhibit the activity of purified PP2A (EMD Millipore Corporation, Darmstadt, Germany, cat. #14-111; human red blood cells), purified PP1 (EMD Millipore Corporation, Darmstadt, Germany, cat. #14-110; rabbit skeletal muscle), or purified PP5 (EMD Millipore Corporation, Darmstadt, Germany, cat. #14-778; recombinant enzyme expressed in E. coli cells) against the fluorimetric substrate, 6,8-difluro-4-methyl umbelliferyl phosphate (DiFMUP; 50 μM final) (Invitrogen ThermoFisher Scientific, Waltham, MA, USA, cat. #D6567). DiFMUP solutions were preincubated with toxins or vehicle controls (all containing 1% DMSO final) for 10 min prior to addition of one of the PP enzymes (0.4, 0.4, and 0.02 units/well for PP2a, PP1, and PP5). PP2a assays were performed in Tris-HCl (40 mM, pH 8.4), MgCl2 (34 mM), EDTA (4 mM), and DTT (4 mM), PP1 assays were performed in Tris-HCl (100 mM, pH 7.5), MnCl2 (0.5 mM), EDTA (0.2 mM), DTT (4 mM) and BSA (0.4 mg/mL), and PP5 assays were performed in HEPES (57 mM, pH 7.2), NaCl (150 mM), EDTA (1 mM), MnCl2 (1 mM), DTT (0.167 mM), glycerol (0.83%), BSA (0.167 mg/mL), Brij-35 (0.002%) (EMD Millipore Corporation, Darmstadt, Germany, pers. comm.). All reactions (50 μL) were performed in black, 96-well, half area plates (Corning Incorporated, Corning, NY, USA) for 2 h at 35 °C with 5 s orbital shaking (ca. 600 rpm) just prior to each reading (every 2 min). PP activity was determined by measuring the fluorescence (excitation 360 nm, emission 470 nm) of each well using a fluorometric plate reader (Fluostar, BMG Lab Technologies, Ortenberg, Germany). All data (mean ± SE, n ≥ 3) are presented as normalized percentages relative to vehicle controls (100%). IC50 determinations were calculated using four-parameter, variable slope, non-linear regression analysis (GraphPad Prism, ver. 5.0c, San Diego, CA, USA).

PP1 = assay type: biochemical, rabbit
PP2a [4] = conditions: relative to OA, using data from Aune et al. and Takai et al.; cited from earlier work
PP5 [5] = molecular target: T2, PP5; assay type: biochemical; set-up: purchased EMD Millipore Corporation (PhosphataseProfiler service); conditions: 200 nM, n = 2
PP2A [6] = molecular target: T1, PP2A; assay type: biochemical; conditions: 200 nM, n = 2
[7] = tested on: CD45, DUSP22, HePTP, LMPTP-A, LMPTP-B, MKP5, PTPMEG1, PTP-MEG2, PTP-1B, PTPN22, PTPβ, RPTPμ, SHP-1, SHP-2, TCPTP, TMDP, VHR, YopH; assay type: biochemical, human and yeast; conditions: 200 nM, n = 2
PP1α = molecular target: T3, PP1α (Homo sapiens, UniProt P62136); assay type: biochemical; conditions: 200 nM, n = 2
T3 construct: purchased EMD Millipore Corporation (PhosphataseProfiler service)
T3 sequence (P62136 whole entry): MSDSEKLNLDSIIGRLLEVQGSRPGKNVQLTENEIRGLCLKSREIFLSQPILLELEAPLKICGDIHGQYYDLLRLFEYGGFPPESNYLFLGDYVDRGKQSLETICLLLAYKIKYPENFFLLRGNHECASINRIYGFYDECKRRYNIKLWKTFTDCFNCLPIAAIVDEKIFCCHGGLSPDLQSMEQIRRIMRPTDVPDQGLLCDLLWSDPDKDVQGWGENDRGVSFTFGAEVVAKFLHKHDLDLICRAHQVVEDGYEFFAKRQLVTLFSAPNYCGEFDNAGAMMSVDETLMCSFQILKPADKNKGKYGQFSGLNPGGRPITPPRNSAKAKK

| Structure (SMILES) | pIC50 (PP2A [1]) | Rel. Potency / TEF (PP2A [1]) | Rel. Potency (as per 48 h Data) / TEF [2] | pEC50 ([2]; Homo sapiens, Jurkat, 24 h) | pEC50 ([2]; Homo sapiens, Jurkat, 48 h) | pEC50 ([2]; Homo sapiens, Jurkat, 72 h) | TEF (European Food Safety Authority) (mice) | pIC50 (PP5 [3]) | Rel. Potency / TEF (PP5 [3]) | pIC50 (PP1) | Rel. Potency / TEF (PP1) | TEF by Huhn et al. (PP2a [4]) | TEF proposed by Aune et al. (mice) | Inhibition of phosphatase activity (PP5 [5]) | Inhibition of phosphatase activity (PP2A [6]) | Inhibition of phosphatase activity [7] | Inhibition of phosphatase activity (PP1α) | pIC50 (PP2A [1]; IC50) | pEC50 [2] |
| --- | --- | --- | --- | --- | --- | --- | --- | --- | --- | --- | --- | --- | --- | --- | --- | --- | --- | --- | --- |
| C=C1C(O)C2OC3(CCC(C=CC(C)C4CC(C)=CC5(OC(CC(C)(O)C(=O)O)CCC5O)O4)O3)CCC2OC1C(O)CC(C)C1OC2(CCC1C)OCCCC2C (centres unmarked) [nat. DTX1, Dinophysistoxin-1] | 9.51 | 1.5 and 1.523 | 0.9 and 0.87 | 7.61 | 7.65 | 7.94 | 1 | 8.89 | 1.8 and 1.769 | 7.46 | 0.72 and 0.724 | 1.58 |  |  |  |  |  |  |  |
| C=C1C(O)C2OC3(CCC(C=CC(C)C4CC(C)=CC5(OC(CC(C)(O)C(=O)O)CCC5O)O4)O3)CCC2OC1C(O)CC(C)C1CCCC2(OCCCC2C)O1 (centres unmarked) [nat. DTX2, Dinophysistoxin-2] | 9.00 and 9.01 | 0.472 | 1.6 and 1.58 |  |  |  | 0.6 | 8.28 | 0.438 | 7.12 | 0.330 | 0.48 | 0.6 | inhibited | inhibited | only PP1α, PP2a, and PP5 were inhibited | inhibited |  |  |
| C=C1[C@@H](O)[C@@H]2O[C@]3(CC[C@H](/C=C/[C@@H](C)[C@@H]4CC(C)=C[C@@]5(O[C@H](C[C@@](C)(O)C(=O)O)CC[C@H]5O)O4)O3)CC[C@H]2O[C@@H]1[C@@H](O)C[C@H](C)[C@H]1O[C@@]2(CCCCO2)CC[C@H]1C [nat. OA, Okadaic Acid] |  | 1.000 | 1.000 | 7.48 | 7.71 | 8.04 | 1 | 8.64 | 1.000 | 7.60 | 1.000 |  |  |  |  |  |  | 9.33 |  |
| C=C1C(O)C2OC3(CCC(C=CC(C)C4CC(C)=CC5(OC(CC(C)(O)C(=O)O)CCC5O)O4)O3)CCC2OC1C(O)CC(C)C1CCCC2(OCCCC2C)O1 (stereo not drawn) [syn. 2-epi-DTX2, 2-epi-dinophysistoxin-2] | 6.86 | 0.003 | 0.004 |  |  |  |  | 6.27 | 0.004 | 5.51 | 0.008 |  |  |  |  |  |  |  | 5.32 and 5.37 and 5.43 |
| C=C1C(O)C2OC3(CCC(C=CC(C)C4CC(C)=CC5(OC(CC(C)(O)C(=O)O)CCC5O)O4)O3)CCC2OC1C(O)CC(C)C1CCCC2(OCCCC2C)O1 (stereo not drawn) [syn. DTX2, Dinophysistoxin-2] | 8.87 | 0.345 | 1.1 and 1.07 |  |  |  |  | 8.40 | 0.582 | 7.08 | 0.305 |  |  |  |  |  |  |  | 7.66 and 7.74 and 7.81 |

From PMC5128750, “Structure–Activity Relationship Studies Using Natural and Synthetic Okadaic Acid/Dinophysistoxin Toxins” (Marine Drugs, 2016)
